Assay results from PubChem BioAssay (NCI).
Values joined by “and” are separate entries in the source; they are usually repeats but may differ in a detail not shown here. Identical values can stand only once.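 How tested: cells in 96-well plates exposed to compound for 48 hours at five concentrations. The concentration for 50% growth inhibition is given as GI50. TGI is the concentration that stops growth completely.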

What was measured:
Test in all cases: DTP human tumour cell line panel, 48 h
COLO 205 colon = system: COLO 205 colon
HCC-2998 colon = system: HCC-2998 colon
SW-620 colon = system: SW-620 colon
NCI-H23 lung = system: NCI-H23 lung
MDA-MB-231 breast = system: MDA-MB-231 breast
HCT-116 colon = system: HCT-116 colon
SK-MEL-2 melanoma = system: SK-MEL-2 melanoma
RXF 393 renal = system: RXF 393 renal
U251 CNS = system: U251 CNS
SK-MEL-5 melanoma = system: SK-MEL-5 melanoma

Row | Structure (SMILES) | TGI (COLO 205 colon) | TGI (HCC-2998 colon) | TGI (SW-620 colon) | TGI (NCI-H23 lung) | TGI (MDA-MB-231 breast) [nM] | TGI (HCT-116 colon) | TGI (SK-MEL-2 melanoma) [nM] | TGI (RXF 393 renal) | TGI (U251 CNS) | TGI (SK-MEL-5 melanoma) | GI50 (COLO 205 colon) [nM] | GI50 (HCC-2998 colon) [nM] | GI50 (SW-620 colon) [nM] | GI50 (NCI-H23 lung) | GI50 (MDA-MB-231 breast) [nM] | GI50 (HCT-116 colon) [nM] | GI50 (SK-MEL-2 melanoma) [nM] | GI50 (RXF 393 renal) [nM] | GI50 (U251 CNS) [nM] | GI50 (SK-MEL-5 melanoma)
1 | COC(=O)C1=C(O)C(C(=O)OC)C2CC(=O)CC1C2(C)C (stereo not given) | > 100000 nM | > 100000 nM | > 100000 nM | > 100000 nM | > 100000 | > 100000 nM | > 100000 | > 100000 nM | > 100000 nM | > 100000 nM |  |  |  |  |  |  |  |  |  | 
2 | CC(CO)Nc1cc(-c2[nH]c3cccnc3c2-c2ccc(F)cc2)ccn1 (stereo not given) | > 25000 nM | > 25000 nM | > 25000 nM | > 25000 nM | > 25000 | > 25000 nM | > 25000 | > 25000 nM | > 25000 nM | > 25000 nM | 13800 | > 25000 | 20300 | > 25000 nM | 19300 | 13400 | > 25000 | 12500 | 15400 | 10300 nM
3 | CCc1c2c(nc3ccc(OCc4ccc(B(O)O)cc4)cc13)-c1cc3c(c(=O)n1C2)COC(=O)[C@]3(O)CC | 8460 nM | > 66100 nM | > 78000 nM | 304 nM | > 89500 | 17800 nM |  | 142 nM |  | 173 nM | 85.5 | 398 | 24.7 | < 10 nM | 1370 | 11.8 | 630 | 23.2 | < 10 | 24.4 nM
4 | N#C[Se]Cc1cc(-c2ccccc2)n(-c2ccc(S(N)(=O)=O)cc2)n1 | 3610 nM | 4940 nM | 4800 nM | 2550 nM | 3120 | 1320 nM | 5600 | 1920 nM | 1780 nM |  | 1930 | 2240 | 2180 | 495 nM | 912 | 383 | 2320 | 542 | 544 | 
5 | O=C(Nc1cccc(Cl)c1)Nn1cnnc1 | > 100000 nM | > 100000 nM | > 100000 nM | > 100000 nM | > 100000 | > 100000 nM | > 100000 | > 100000 nM | > 100000 nM | > 100000 nM | > 50000 | > 50000 | > 50000 | > 50000 nM | > 50000 | > 50000 | > 50000 | > 50000 | > 50000 | > 50000 nM
6 | O=C(Oc1cccnc1)c1cccnc1Nc1ccnc(C(F)(F)F)c1 | 72400 nM | 35300 nM | > 100000 nM | > 100000 nM | > 100000 | 3710 nM | 62000 | 80400 nM | 47300 nM | 63400 nM | 27400 | 16800 | 5470 | 6380 nM | 14100 | 1760 | 5700 | 21300 | 14300 | 6990 nM
7 | CC1CC(C)CC(C)C(O)/C(C#N)=C/C=C/CC(C2CCCC2C(=O)O)OC(=O)CC(O)C(C)C1 (stereo not given) | 270 nM and 412 nM | 102 nM and 72.6 nM | 725 nM and 1340 nM | 91.9 nM and 22.1 nM | 70.6 | 700 nM and 145 nM | 5.45 | 30.4 nM and 27.3 nM | 54.7 nM and 44.9 nM | 122 nM and 93.2 nM | 56.5 | 29.7 | 83.4 | 18.3 nM and < 10.5 nM | 19.3 | 47.3 | 1.39 | 3.63 |  | 28.2 nM and 23.2 nM
